Among the data in PubChem BioAssay (NCI) are GI50 and TGI values, retold here.

Molecules are shown by their SMILES.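 Exposure lasted 48 hours, with cells grown in 96-well plates and compounds tested at five concentrations. At the GI50, growth is halved. TGI: total growth inhibition.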

Assay in all cases: NCI-60 cell line screen, 48 h
Experiment [1] has as its system A549 NSCLC.
The test system of experiment [2] is BT-549 breast.
Experiment [3] deals with CCRF-CEM leukemia.
Experiment [4] has as its system COLO 205 colon.
In experiment [5] the test system is HCC-2998 colon.
Experiment [6] concerns HL-60(TB) leukemia.
Experiment [7] relates to HS 578T breast.
Experiment [8] concerns RXF 393 renal.
The subject of experiment [9] is SF-539 CNS.
Experiment [10] relates to SNB-19 CNS.

In the case of `C#Cc1cccc(Nc2nc3ccc([N+](=O)[O-])cc3nc2Nc2cccc(C#C)c2)c1`, the GI50 in experiment [1] was 0.212 µM; in experiment [2] it was 0.294 µM; in experiment [3], 0.209 µM; in experiment [4], 0.172 µM; in experiment [5], 0.341 µM; in [6], 0.299 µM. Further, the GI50 in [7] was 0.322 µM; in experiment [8] it was 0.227 µM; in experiment [9], 0.247 µM; in experiment [10], 0.361 µM. The TGI is 1.12 µM in experiment [1]; 1.2 µM in experiment [2]; 1.03 µM in [3]; 0.345 µM in [4]; 1.27 µM in experiment [5]; 0.788 µM in [6]. In addition, the TGI in [7] is 1.72 µM; in experiment [8], 0.618 µM; in [9], 0.738 µM; in experiment [10], 1.84 µM.

For the compound `CCC1CCc2nc3sc(C(=O)Nc4ccccc4C)c(N)c3cc2C1` (configuration not stated), the GI50 in experiment [1] was 0.616 µM; in experiment [2], 0.558 µM; in experiment [3], 0.331 µM; in experiment [4] it was 0.451 µM; in experiment [5] it was 4.42 µM; in [6] it was 0.214 µM. Also, the GI50 in [7] is 0.514 µM; in experiment [8], 0.316 µM; in [9] it was 0.398 µM; in experiment [10], 0.911 µM. Besides, the TGI in experiment [1] is over 100 µM; in [2], over 100 µM; in experiment [3] it was over 100 µM; in experiment [4], over 100 µM; in experiment [5], over 100 µM; in [6], 0.617 µM. The TGI in experiment [7] is over 100 µM; in experiment [8], 40.7 µM; in experiment [9] it was over 100 µM; in experiment [10] it was over 100 µM.

For the compound `O=C1c2c(O)cc(O)cc2OC(c2ccc(O)cc2O)C1O` (configuration not stated), the TGI in experiment [1], in experiment [2], in experiment [3], in experiment [4], in [5] and in [6] was over 100 µM each time. The TGI in experiment [7], in experiment [8], in experiment [9] and in experiment [10] was over 100 µM in each case. The GI50 in [3], in experiment [4], in experiment [5], in experiment [6], in [9] and in experiment [10] was over 100 µM throughout.

`COc1ccc(-c2csc(-c3cc(Cl)cc(Cl)c3Cl)n2)cc1`: the GI50 was 68.3 µM in experiment [1]; 92.2 µM in experiment [2]; over 100 µM in experiment [3]; over 100 µM in experiment [4]; 44.6 µM in [5]; 78.3 µM in experiment [6]. Also, the GI50 was 46.8 µM in experiment [7], 46.4 µM in experiment [8], 41.8 µM in experiment [9] and 50.3 µM in [10]. Further, the TGI in experiment [1], in [2], in experiment [3], in [4], in experiment [5] and in experiment [6] was over 100 µM throughout. Also, the TGI in experiment [7], in experiment [8], in experiment [9] and in experiment [10] was over 100 µM throughout.

Consider `CN(C[C@@H]1COCCO1)S(=O)(=O)Nc1ccc2ccc3ncc(-c4cnn(C)c4)cc3c(=O)c2c1`, for which the GI50 in [1] was 6.64 µM; in experiment [2], 2.01 µM; in experiment [3] it was 5.65 µM; in experiment [4], 19.3 µM; in experiment [5], 59.6 µM; in experiment [6], 6.77 µM. Besides, the GI50 in experiment [7] was 1.35 µM; in [8], 1.1 µM; in experiment [9], 1.57 µM; in experiment [10], 12.5 µM. The TGI in [1], in experiment [2], in experiment [3], in [4], in experiment [5] and in [6] was over 100 µM throughout. The TGI in experiment [7] was 6.16 µM; in experiment [8] it was 6.71 µM; in experiment [9], 7.91 µM; in experiment [10], over 100 µM.

As for `N#Cc1ccc(C(c2ccc(C#N)cc2)n2cncn2)cc1`, the GI50 was over 5000 µM in experiment [1]; over 5000 µM in experiment [3]; over 5000 µM in experiment [4]; over 5000 µM in experiment [5]; over 5000 µM in experiment [6]; 1540 µM in [7]. In addition, the GI50 was 18.3 µM in [8], 1250 µM in experiment [9] and over 5000 µM in experiment [10]. In addition, the TGI in experiment [1], in [2], in experiment [3], in experiment [4], in [5] and in experiment [6] was over 5000 µM each time. The TGI in experiment [7], in [9] and in experiment [10] was over 5000 µM each time.

With `O=[N+]([O-])c1ccc2ncccc2c1Cl`, the GI50 in experiment [1] is 3.29 µM; in [2], 3.29 µM; in experiment [3], 2.54 µM; in experiment [5], 3.67 µM; in experiment [6], 1.92 µM; in experiment [7], 7.69 µM. Further, the GI50 in [8] is 2.74 µM; in experiment [9], 2.76 µM; in [10], 4.2 µM. Further, the TGI in experiment [1] was over 100 µM; in experiment [2], 9.57 µM; in experiment [3] it was 29.8 µM; in experiment [5], 14.2 µM; in experiment [6] it was 7.78 µM; in experiment [7] it was over 100 µM. Also, the TGI in [8] amounted to 8.81 µM; in experiment [9], 34.2 µM; in [10], 23.4 µM.
